Laboratory results reported in patent US20080031817A1, “Inhibition Of Superoxide Dismutase By Tetrathiomolybdate: Identification Of New Anti-Angiogenic And Antitumor Agents” (priority 2004, published 2008).
Blank lines part the entries; values can stand above or below the compound they belong to.

How the values were obtained:
extracellular SOD = target: T1, extracellular SOD (Homo sapiens, UniProt P08294); settings: alcoholics, compared to untreated alcoholics and healthy control; cited from earlier work
T1 construct: DS administered to alcoholics reduced by 20% extracellular SOD activity
T1 sequence (P08294 19-240): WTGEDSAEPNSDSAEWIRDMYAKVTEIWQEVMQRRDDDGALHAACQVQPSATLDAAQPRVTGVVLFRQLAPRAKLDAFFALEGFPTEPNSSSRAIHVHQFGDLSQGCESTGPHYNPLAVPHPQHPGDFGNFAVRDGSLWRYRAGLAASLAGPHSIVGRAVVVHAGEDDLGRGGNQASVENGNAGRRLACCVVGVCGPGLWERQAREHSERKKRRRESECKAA

HUVEC = HUVEC proliferation assay (acid phosphatase method); assay type: cell-based, human
Experimental: Alternatively, cells at a density of 6000/well are plated in wells of 48 well microplates on 0.1% gelatin in 200 μl M200/2% FCS, and incubated at 37° C. in a humid atmosphere of 5% CO2 for 16 hrs. Compounds to be tested are diluted in M200 supplemented with 2% FCS and 1 ng/ml FGF-2 and added to the cells. Positive control contain no compound, and negative controls contain no compound or FGF-2. Cells are incubated at 37° C./5% CO2 for 72 hours. Cells are enumerated indirectly using the acid phosphatase method (Connolly, D T et al., 1986, Anal. Biochem 152:136-140). After removal of growth medium, the cells are lysed in buffer containing Triton X-100. The chromogenic substrate for acid phosphatase, p-nitrophenyl phosphate is added at a concentration of 100 mM. After incubation for 75 min. at 37° C., the reaction is stopped with 1N NaOH, and color is measured using a multiwell microplate reader.
Cells at a density of 6000/well were plated in wells of 48 well microplates on 0.1% gelatin in 200 μl M200/2% FCS, and were incubated at 37° C. in a humid atmosphere of 5% CO2 for 16 hrs. Compounds to be tested were diluted in M200 supplemented with 2% FCS and 1 ng/ml FGF-2 and added to the cells. Positive control contained no compound, and negative controls contained no compound or FGF-2. Cells were incubated at 37° C./5% CO2 for 72 hours. Cells were enumerated indirectly using the acid phosphatase method. After removal of growth medium, the cells were lysed in buffer containing the detergent Triton X-100. The chromogenic substrate for acid phosphatase, p-nitrophenyl phosphate was added at a concentration of 100 mM. After incubation for 75 min. at 37° C., the reaction was stopped with 1N NaOH and color was measured using a multiwell microplate reader.
HUVEC proliferation assays were performed as described. Increasing concentrations of ATN-224 was added to cultures in the presence or absence of 100 μM MnTBAP (AG Scientific, San Diego). Cell number was estimated using the acid phosphatase method described above.

bovine SOD1 [1] = target: T2, bovine SOD1 (Bos taurus, UniProt P00442); assay: CuZn SOD (SOD1) activity assay, xanthine/xanthine oxidase with WST-1; assay type: biochemical; settings: for inhibition of SOD1 activity in vitro: in vitro enzyme assay, WST-1
T2 sequence (P00442 whole entry): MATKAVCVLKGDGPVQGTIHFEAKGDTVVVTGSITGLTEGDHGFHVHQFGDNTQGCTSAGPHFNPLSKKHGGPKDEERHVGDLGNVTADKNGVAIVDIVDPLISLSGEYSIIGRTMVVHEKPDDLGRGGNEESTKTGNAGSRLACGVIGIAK
Experimental: SOD1 was assayed with a commercially available kit (Dojindo) based on the xanthine/xanthine oxidase superoxide generation reaction coupled to a water soluble tetrazolium salt, WST-1.
Standard curves (0-13 nM) of bovine SOD were generated using the SOD1 assay described above in the presence of increasing concentrations of ATN-224. Appropriate blanks comprising ATN-224 in the absence of SOD1 enzyme were also generated. The inhibition of SOD1 activity was calculated from these standard curves.

bovine SOD1 [2] = target: T2, bovine SOD1; assay: Removal of copper from SOD1 (gel filtration, ICP-MS); assay type: biochemical
Experimental: […] The protein was then purified by gel filtration chromatography. The sample was then analyzed for molybdenum content and copper content by ICP-MS.

intracellular CuZnSOD = target: T3, intracellular CuZnSOD (Homo sapiens, UniProt P00441); assay: Intracellular CuZnSOD activity in HUVECs; assay type: cell-based
T3 construct: Lysates were assayed for SOD1 activity as described above; endogenous in cells; host or cells: HUVEC
T3 sequence (P00441 whole entry): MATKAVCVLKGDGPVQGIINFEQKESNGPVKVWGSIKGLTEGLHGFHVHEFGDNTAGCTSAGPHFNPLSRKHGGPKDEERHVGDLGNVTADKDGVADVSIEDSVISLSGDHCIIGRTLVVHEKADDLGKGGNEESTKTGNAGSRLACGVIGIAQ
Experimental: HUVECs were plated on 0.1% gelatin at 2-4×10^6 cells in T-25 flasks in M200 medium with 2% FCS. Cells were incubated at 37° C./5% CO2 for 16 hrs. Cells were rinsed with M200/2% FCS and incubated for a further 2 hrs in medium to which varying concentration of ATN-224 and FGF-2 (at 1 ng/ml) were added. At various intervals, medium was removed and the cells lysed in lysis buffer. Lysates were assayed for SOD1 activity as described above. Lysates were also analyzed by Western blot using a SOD1-specific polyclonal antibody (Biodesign, ME). These experiments were repeated in increasing concentrations of serum.

[3] = system: superoxide anions in HUVECs; settings: 72 hrs, ATN-224 at IC50, 5 μM DHE, vs control HUVECs
Experimental: HUVECs were plated in 6 well cluster plates on 0.1% gelatin at 6000 cells/well in M200/2% FCS. Cells were incubated at 37° C./5% CO2 for 16 hrs. Cells were rinsed, and ATN-224 was added in medium supplemented with 1 ng/ml FGF-2. Cells were incubated at 37 ° for 72 hours, rinsed in PBS, and DHE (Molecular probes) was added (5 μM) to the cells. Cells were then visualized microscopically using a fluorescent lamp and a red filter.

angiogenesis = assay: Matrigel plug assay (hemoglobin); assay type: in vivo; settings: mice
Experimental: This assay is performed essentially as described by Passaniti et al. (Lab Invest. 67:519-528 (1992). Ice-cold Matrigel® (e.g., 500 μL) (Collaborative Biomedical Products, Inc., Bedford, Mass.) is mixed with heparin (e.g., 50 μg/ml), FGF-2 (e.g., 400 ng/ml) and the compound to be tested. In some assays, bFGF may be substituted with tumor cells as the angiogenic stimulus. The Matrigel® mixture is injected subcutaneously into 4-8 week-old athymic nude mice at sites near the abdominal midline, preferably 3 injections per mouse. The injected Matrigel® forms a palpable solid gel. Injection sites are chosen such that each animal receives a positive control plug (such as FGF-2+heparin), a negative control plug (e.g., buffer+heparin) and a plug that includes the compound being tested for its effect on angiogenesis, e.g., (FGF-2+heparin+compound). […] Hemoglobin (Hb) levels are determined using Drabkin's solution (e.g., obtained from Sigma) according to the manufacturers' instructions. […] The amount of fluorescence in the dispersed plug, determined fluorimetrically, also serves as a measure of angiogenesis in the plug. […]
Matrigel® ([…]) on ice was mixed with heparin (50 mg/ml), FGF-2 (800 ng/ml), VEGF (300 ng/ml) and the test compound. […] Hemoglobin levels in the plugs were determined using Drabkin's solution according to the manufacturers' instructions (Sigma Chemicals). […]

SOD1 = target: T4, SOD1 (Homo sapiens, UniProt P00441); assay: SOD1 activity in treated tumors; assay type: in vivo; settings: SOD1 protein unchanged (Western blot)
T4 construct: from tissue
T4 sequence (P00441 whole entry, species assumed): as the sequence (P00441 whole entry) above

[4] = Zn^2+, Fe^2+, Ca^2+, Mn^2+, Mg^2+; standard binding assays
[5] = system: intracellular copper levels

Compound: CCN(CC)C(=S)SSC(=S)N(CC)CC [DS, Tetraethylthiuram disulfide]
reduction of extracellular SOD activity (extracellular SOD): 20%

Compound: O=C(O)c1ccc(/C2=C3\C=CC(=N3)/C(c3ccc(C(=O)O)cc3)=c3/cc/c4[n]3[Mn]([Cl])[n]3c2ccc3/C(c2ccc(C(=O)O)cc2)=C2/C=CC(=N2)\C=4c2ccc(C(=O)O)cc2)cc1 [MnTBAP, reference compound]
reversal of ATN-224 inhibition of cell proliferation (HUVEC; 100 μM MnTBAP with ATN-224): abrogate most of the inhibition
reversal of ATN-224 inhibition of angiogenesis (angiogenesis; MnTBAP with ATN-224 in plug): abrogated most of this inhibition

Compound: O=C1CC(c2cccs2)Sc2ccccc2N1 (stereo not drawn) [ATN 722]
inhibition of SOD1 activity in vitro (bovine SOD1 [1]): inhibited SOD1 activity

Further lines, with some results ahead:

inhibition of SOD1 activity in vitro (bovine SOD1 [1]): inhibited this reaction
binding to CuZnSOD (Mo content of purified protein) (bovine SOD1 [2]): did not bind to CuZnSOD
copper content of CuZnSOD (bovine SOD1 [2]): appreciable loss of copper
inhibition of intracellular CuZnSOD (intracellular CuZnSOD; HUVECs, 3 concentrations, up to 24 hours): dose and time dependent inhibition
effect of serum on intracellular CuZnSOD inhibition (intracellular CuZnSOD; increasing concentrations of serum): unaffected by the presence of serum
SOD1 enzymatic activity in treated tumors (SOD1): reduced SOD1 enzymatic activity
binding to other metal cations [4]: does not bind detectably
inhibition of aldehyde dehydrogenase (aldehyde dehydrogenase): does not inhibit
Compound: C[N+](C)(C)CCO.C[N+](C)(C)CCO.[SH-].[SH-].[S]=[Mo]=[S] [ATN-224, choline tetrathiomolybdate]
IC50 (HUVEC; FGF-2 driven, 72 hours, read-out: IC50, inhibition of HUVEC proliferation): 1 to 2 µM
inhibition of FGF-2 driven proliferation with copper added (HUVEC; equimolar concentrations of copper added): completely abrogated
inhibition of generation of superoxide ions in the assay (bovine SOD1 [1]; xanthine/xanthine oxidase): did not act by inhibiting generation of superoxide ions
level of CuZnSOD protein (Western blot) (intracellular CuZnSOD; HUVEC lysates): did not affect the level of CuZnSOD protein
DHE fluorescence (superoxide) [3]: strong fluorescence
angiogenesis in Matrigel plugs (angiogenesis; compound in plug, 5 days): inhibited
intracellular copper levels [5]: does not increase intracellular copper levels
IL-8 expression (IL-8 expression): down-regulates IL-8 expression

inhibition of SOD1 activity in vitro (bovine SOD1 [1]): inhibited SOD1 activity
inhibition of SOD1 activity in vitro (bovine SOD1 [1]; listed as choline tetrathiotungstate): effective inhibitor of SOD1 activity
Compound: C[N+](C)(C)CCO.C[N+](C)(C)CCO.[S]=[W](=[S])([S-])[S-] [ATN-427, choline tetrathiotungstate]

inhibition of SOD1 activity in vitro (bovine SOD1 [1]): inhibited SOD1 activity
Compound: c1csc(CSc2nc3ccccc3s2)c1 [ATN-714]

inhibition of SOD1 activity in vitro (bovine SOD1 [1]): inhibited SOD1 activity
Compound: CN(C)C1=NCC(CSC(=N)N)S1 (stereo not drawn) [ATN-719]
